Here are results for 26 compounds from patent publication US20200010479A1, “INHIBITORS OF MICROBIAL BETA-GLUCURONIDASE ENZYMES AND USES THEREOF” (THE UNIVERSITY OF NORTH CAROLINA AT CHAPEL HILL, priority 2017, published 2020).

The target in one series is E. coli GUS (Escherichia coli, UniProt P05804). Kind of series: In vitro EcGUS inhibition, cleavage of PNPG by purified E. coli GUS. The series is classed as biochemical. The settings on record: PNPG substrate, 37° C., 2 hours. The method, then: To assess GUS inhibition, cleavage of p-nitrophenyl-β-D-glucuronide (PNPG) by purified E. coli GUS in the presence of inhibitor was measured. The reaction was performed in 96-well clear-bottom plates at a volume of 50 μL. Each reaction contained 5 μL of 100 nM E. coli GUS, 5 μL of inhibitor at various concentrations, 10 μL of 250 mM HEPES and 250 mM NaCl assay buffer, and 30 μL of 1.5 mM PNPG. The reaction was initiated by addition of PNPG and incubated at 37° C. for 2 hours. End point absorbance values at 410 nm were measured using a PHERAstar Plus microplate reader. The resulting data were fit with a four-parameter logistic log function in SigmaPlot 13.0 to determine IC50 values. IC50 was defined as the concentration of inhibitor that yields a 50% reduction in product formation at equilibrium.
E. coli GUS, sequence (P05804 whole entry): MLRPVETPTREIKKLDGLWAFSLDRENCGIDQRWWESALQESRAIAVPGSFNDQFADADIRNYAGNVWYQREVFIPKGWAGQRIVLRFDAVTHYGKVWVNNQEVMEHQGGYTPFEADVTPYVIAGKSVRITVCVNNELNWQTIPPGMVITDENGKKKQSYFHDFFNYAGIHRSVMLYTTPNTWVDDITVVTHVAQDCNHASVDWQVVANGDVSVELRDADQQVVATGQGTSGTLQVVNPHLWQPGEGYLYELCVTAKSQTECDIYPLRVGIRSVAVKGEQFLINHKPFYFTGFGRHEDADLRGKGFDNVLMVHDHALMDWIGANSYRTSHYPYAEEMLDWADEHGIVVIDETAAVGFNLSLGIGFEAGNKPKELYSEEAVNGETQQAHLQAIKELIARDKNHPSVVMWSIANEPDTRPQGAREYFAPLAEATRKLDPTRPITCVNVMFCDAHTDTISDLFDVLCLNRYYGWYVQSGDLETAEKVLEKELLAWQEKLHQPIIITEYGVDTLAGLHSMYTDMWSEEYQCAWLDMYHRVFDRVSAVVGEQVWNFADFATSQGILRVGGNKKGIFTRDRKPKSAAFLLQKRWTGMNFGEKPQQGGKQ

The subject of series [1] is panel of purified GUS enzymes present in the human gut microbiota. Put plainly: SN-38-G processing by panel of purified GUS enzymes, with inhibitors. The settings on record: enzymes other than E. coli GUS. Format: biochemical.
The subject of series [2] is gut microbial GUS enzymes. The settings on record: co-treatment with irinotecan; cited from earlier work.
The conditions of series [3]: rats; cited from earlier work.
For series [4], the system named is bacteria cultured in vitro. The settings on record: cited from earlier work.
Series [5] relates to GUS activity in human fecal extracts. The settings on record: cited from earlier work.

Usually IC50 stands for the concentration needed to halve the response being measured. A lower IC50 goes with higher potency. At E. coli GUS, `CN1CCN(c2nnnc3c2sc2nc(N4CCOCC4)c4c(c23)CCCC4)CC1` [Compound 2] came in with a 50% inhibitory concentration (IC50) of 37600 ± 700 nM.

Turning to `C1CCc2c(c(N3CCOCC3)nc3sc4c(NC5CCNCC5)nnnc4c23)C1` [Compound 4], at E. coli GUS, it took 30000 ± 10000 nM to reach half-maximal inhibition (IC50).

In turn, `C1CCc2c(c(N3CCOCC3)nc3sc4c(N5CC6CC5CN6)nnnc4c23)C1` (centres unmarked) [Compound 5] displayed an IC50 on E. coli GUS of 9000 ± 2000 nM.

At E. coli GUS, `C[C@@H]1CN(c2nnnc3c2sc2nc(N4CCOCC4)c4c(c23)CCCC4)CCN1` [Compound 6] came in with an IC50 of 2400 ± 400 nM.

Regarding `C[C@H]1CN(c2nnnc3c2sc2nc(N4CCOCC4)c4c(c23)CCCC4)CCN1` [Compound 7], at E. coli GUS, the IC50 was 2400 ± 300 nM.

`C1CCc2c(c(N3CCOCC3)nc3sc4c(N5CCCNCC5)nnnc4c23)C1` [Compound 8] gave an IC50 against E. coli GUS of 9000 ± 2000 nM.

`NCCNc1nnnc2c1sc1nc(N3CCOCC3)c3c(c12)CCCC3` [Compound 9] had an IC50 at E. coli GUS of 5600 ± 500 nM.

`C1CCc2c(c(N3CCNCC3)nc3sc4c(N5CCNCC5)nnnc4c23)C1` [Compound 12] displayed an IC50 against E. coli GUS of 130 ± 10 nM.

`C1CCN(c2nc3sc4c(N5CCNCC5)nnnc4c3c3c2CCCC3)CC1` [Compound 13]: the IC50 against E. coli GUS was 500 ± 200 nM.

Consider `C1CCC(Nc2nc3sc4c(N5CCNCC5)nnnc4c3c3c2CCCC3)CC1` [Compound 14], for which, at E. coli GUS, the half-maximal inhibitory concentration (IC50) was 800 ± 200 nM.

For `CN(C)c1nc2sc3c(N4CCNCC4)nnnc3c2c2c1CCCC2` [Compound 15], half-maximal inhibition against E. coli GUS (IC50) was put at 130 ± 10 nM.

`c1ccc(CNc2nc3sc4c(N5CCNCC5)nnnc4c3c3c2CCCC3)cc1` [Compound 17] showed an IC50 against E. coli GUS of 190 ± 40 nM.

`c1cc2c(nc1N1CCOCC1)sc1c(N3CCNCC3)nnnc12` [Compound 19] returned an IC50 against E. coli GUS of 170 ± 40 nM.

Turning to `CNc1nc(N2CCNCC2)c2sc3nc(N4CCOCC4)ccc3c2n1` [Compound 21], on E. coli GUS, the midpoint of inhibition, the IC50, lay at 100 ± 20 nM.

With `c1ccc(-c2ccc3c(n2)sc2c(N4CCNCC4)nnnc23)cc1` [Compound 22], at E. coli GUS, the half-maximal inhibitory concentration (IC50) is 150 ± 50 nM.

`c1ccc(-c2ccc3c(n2)sc2c(N4CCNCC4)ncnc23)cc1` [Compound 23] yielded an IC50 against E. coli GUS of 130 ± 30 nM.

With `CNc1nc(N2CCNCC2)c2sc3nc(-c4ccccc4)ccc3c2n1` [Compound 24], the half-maximal inhibitory concentration (IC50) against E. coli GUS amounted to 180 ± 90 nM.

Turning to `CN(C)c1nc(N2CCNCC2)c2sc3nc(-c4ccccc4)ccc3c2n1` [Compound 25], the concentration for half-maximal inhibition (IC50) against E. coli GUS was 190 ± 90 nM.

For `OCCNc1nc(N2CCNCC2)c2sc3nc(-c4ccccc4)ccc3c2n1` [Compound 26], inhibition at E. coli GUS was half-maximal at 120 ± 20 nM (IC50).

`CN(C)c1ccc2c(n1)sc1c(N3CCNCC3)nnnc12` [Compound 27] registered a concentration for half-maximal inhibition (IC50) against E. coli GUS of 80 ± 30 nM.

As to `CNc1nc(N2CCNCC2)c2sc3nc(N(C)C)ccc3c2n1` [Compound 28], the IC50 against E. coli GUS amounted to 42 ± 6 nM.

The compound `CNc1ccc2c(n1)sc1c(N3CCNCC3)nc(NC)nc12` [Compound 29] displayed an IC50 against E. coli GUS of 40 ± 8 nM.

For `c1cnc2sc3c(N4CCNCC4)ncnc3c2c1` [Compound 30], half-maximal inhibition on E. coli GUS (IC50) was put at 80 ± 20 nM.

For the compound `CNc1nc(N2CCNCC2)c2sc3ncccc3c2n1` [Compound 31], at E. coli GUS, half-maximal inhibition (IC50) was put at 36 ± 2 nM.

In the case of `CCOc1ccc(NC(=S)N(CCO)Cc2cc3cc(C)cc(C)c3[nH]c2=O)cc1` [Inh1], in series [1], the “effects on other GUS enzymes, including others from the L1 category” value was “weak effects”. Besides, the “gut toxicity and diarrhea” value in series [2] was “alleviated gut toxicity and diarrhea”. The “NSAID-induced intestinal anastomosis after surgical resection” value in series [3] was “reduce NSAID-induced intestinal anastomosis”.

For `Clc1ccc2c(c1)C(N1CCNCC1)=Nc1ccccc1O2` [amoxapine], the “viability of bacteria cultured in vitro” value in series [4] was “reduced the viability”. Further, in series [5], the “block of GUS activity in human fecal extracts” value is “incompletely blocks”.
